# Experiments:
# [1] = biological target: T1, H. influenzae NfsB (Haemophilus influenzae, UniProt Q57431); assay: NAD; type: biochemical
# [2] = biological target: T1, H. influenzae NfsB; assay: TLC of flavin released from heat-denatured purified enzyme; type: binding
# [3] = biological target: T1, H. influenzae NfsB; assay: Michaelis-Menten kinetics by NADPH oxidation; type: biochemical
# [4] = biological target: T1, H. influenzae NfsB; assay: inhibition of chloramphenicol reduction by purified enzyme, monitored at […] nm; type: biochemical
# [5] = tested on: O=C(N[C@H](CO)[C@H](O)c1ccc([N+](=O)[O-])cc1)C(Cl)Cl; assay: purified protein; type: biochemical, Haemophilus influenzae; conditions: FMN, NADPH
# [6] = biological target: T1, H. influenzae NfsB
# [7] = biological target: T1, H. influenzae NfsB; remark: listed apart in the source
# T1 sequence (Q57431 whole entry): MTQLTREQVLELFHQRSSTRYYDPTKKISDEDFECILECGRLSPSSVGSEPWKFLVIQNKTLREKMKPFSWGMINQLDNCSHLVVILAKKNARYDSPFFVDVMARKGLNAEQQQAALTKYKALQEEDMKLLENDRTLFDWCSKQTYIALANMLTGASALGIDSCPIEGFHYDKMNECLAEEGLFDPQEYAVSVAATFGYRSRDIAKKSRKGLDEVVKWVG
compound,measurement,setting,value
NC(=O)C1=CN([C@@H]2O[C@H](COP(=O)(O)OP(=O)(O)OC[C@H]3O[C@@H](n4cnc5c(N)ncnc54)[C@H](OP(=O)(O)O)[C@@H]3O)[C@@H](O)[C@H]2O)C=CC1 [NADPH],NAD(P)H oxidation at 340 nm with purified enzyme,[1],requires NADPH as a cofactor and does not utilize NADH
Cc1cc2nc3c(=O)[nH]c(=O)nc-3n(C[C@H](O)[C@H](O)[C@H](O)COP(=O)(O)O)c2cc1C [flavin mononucleotide],TLC of flavin released from heat-denatured purified enzyme,[2],"tightly binds a flavin cofactor, most likely flavin mononucleotide (FMN)"
CC1=CC(=O)c2ccccc2C1=O [menadione],Michaelis-Menten kinetics by NADPH oxidation (kcat/KM),[3],79340 M⁻¹ s⁻¹
O=[N+]([O-])c1cccc(O)c1 [3-nitrophenol],Michaelis-Menten kinetics by NADPH oxidation (kcat/KM),[3],61800 M⁻¹ s⁻¹
O=c1oc2ccccc2c(O)c1Cc1c(O)c2ccccc2oc1=O [dicoumarol],IC50,[4],120 µM
H. influenzae NfsB (Haemophilus influenzae Rd KW20),Km,[5],500 µM
O=C1CN(/N=C/c2ccc([N+](=O)[O-])o2)C(=O)N1 [nitrofurantoin],Michaelis-Menten kinetics at 420 nm (kcat/KM),[6],242890 M⁻¹ s⁻¹
O=[N+]([O-])c1ccc(O)cc1 [4-nitrophenol],enzyme turnover monitored at 450 nm; kcat/KM not determined,[7],"All three of these compounds also acted as substrates, with menadione showing relatively high activity and 4-nitrophenol showing relatively low"

# Source: PMC6474809 (Cell chemical biology, 2019)
